Measured values published in patent US20150247179A1 (Les Laboratoires Servier, priority 2013, published 2015).

What was measured:
CYP2D6 [1] = target: T1, CYP2D6 (Homo sapiens, UniProt P10635); conditions: In vitro parameters (literature); cited from earlier work
CYP2B6 [2] = target: T2, CYP2B6 (Homo sapiens, UniProt P20813); assay: Percentage inhibition of bupropion hydroxylase activity in irreversibly inhibited human liver microsomes vs control batch
T2 sequence (P20813 1-491): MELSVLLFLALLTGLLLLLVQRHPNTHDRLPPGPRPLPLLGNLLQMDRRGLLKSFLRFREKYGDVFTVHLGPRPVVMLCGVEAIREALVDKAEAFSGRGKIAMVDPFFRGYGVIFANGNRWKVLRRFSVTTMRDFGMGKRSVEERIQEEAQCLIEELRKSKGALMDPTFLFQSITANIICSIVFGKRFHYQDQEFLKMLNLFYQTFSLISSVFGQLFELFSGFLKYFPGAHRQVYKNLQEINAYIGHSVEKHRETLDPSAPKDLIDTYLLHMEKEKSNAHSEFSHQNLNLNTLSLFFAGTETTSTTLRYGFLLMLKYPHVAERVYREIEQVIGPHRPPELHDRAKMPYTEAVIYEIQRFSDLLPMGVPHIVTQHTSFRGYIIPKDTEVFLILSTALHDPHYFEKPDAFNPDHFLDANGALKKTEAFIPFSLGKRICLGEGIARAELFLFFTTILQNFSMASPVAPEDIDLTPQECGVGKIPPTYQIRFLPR

CYP2D6 [3] = target: T1, CYP2D6; assay: in vitro; conditions: pH 7.4
[4] = human
Method: (§1) Each active ingredient was incubated at 0.1 μM at 37° C. […] The reaction is initiated by addition of NADPH 1 mM. The incubation is monitored in kinetic form. At the incubation timepoints of 7 min, 17 min, 30 min and then 60 min, an incubation aliquot (100 μL) is sampled and the enzymatic reaction is stopped by adding to that aliquot a to volume of solvent (100 μL of methanol) which is placed in ice for 10 minutes.
(§2) At each incubation timepoint, the active ingredient is quantified by high-performance liquid chromatography (HPLC) coupled with mass spectrometry (MS).

CYP2C8 [5] = target: T3, CYP2C8 (Homo sapiens, UniProt P10632); conditions: In vitro parameters (literature); cited from earlier work
T3 sequence (P10632 1-490): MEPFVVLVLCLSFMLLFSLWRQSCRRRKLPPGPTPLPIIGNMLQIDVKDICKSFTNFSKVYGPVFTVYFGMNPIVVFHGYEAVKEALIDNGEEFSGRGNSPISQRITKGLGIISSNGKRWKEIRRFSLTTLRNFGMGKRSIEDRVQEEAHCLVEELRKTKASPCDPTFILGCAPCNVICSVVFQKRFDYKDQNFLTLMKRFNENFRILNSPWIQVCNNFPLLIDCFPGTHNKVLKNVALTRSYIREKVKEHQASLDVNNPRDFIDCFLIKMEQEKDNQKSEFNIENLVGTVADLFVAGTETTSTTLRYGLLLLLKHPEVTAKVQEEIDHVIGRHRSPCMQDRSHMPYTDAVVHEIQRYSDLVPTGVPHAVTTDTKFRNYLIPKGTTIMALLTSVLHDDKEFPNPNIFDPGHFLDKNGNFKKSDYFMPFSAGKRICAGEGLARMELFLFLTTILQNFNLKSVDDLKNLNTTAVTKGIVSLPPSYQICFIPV

CYP2C8 [6] = target: T3, CYP2C8
CYP1A2 [7] = target: T4, CYP1A2 (Homo sapiens, UniProt P05177); assay: in vitro; conditions: pH 7.4
T4 sequence (P05177 2-516): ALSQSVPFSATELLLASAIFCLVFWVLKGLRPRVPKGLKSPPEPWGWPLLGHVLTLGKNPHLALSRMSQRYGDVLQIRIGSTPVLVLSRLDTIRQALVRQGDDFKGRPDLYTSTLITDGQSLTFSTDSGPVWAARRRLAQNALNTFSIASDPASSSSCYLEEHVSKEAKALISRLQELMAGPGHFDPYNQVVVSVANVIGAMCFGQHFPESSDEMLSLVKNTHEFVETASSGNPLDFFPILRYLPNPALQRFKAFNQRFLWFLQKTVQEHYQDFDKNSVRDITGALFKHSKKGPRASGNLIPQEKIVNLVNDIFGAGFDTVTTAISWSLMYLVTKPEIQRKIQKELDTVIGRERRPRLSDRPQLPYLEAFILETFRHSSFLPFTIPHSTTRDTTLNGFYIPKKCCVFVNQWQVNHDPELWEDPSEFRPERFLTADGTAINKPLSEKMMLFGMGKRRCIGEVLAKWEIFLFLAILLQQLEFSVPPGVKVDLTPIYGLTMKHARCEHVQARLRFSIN

CYP2A6 [8] = target: T5, CYP2A6 (Homo sapiens, UniProt P11509); assay: Percentage inhibition of coumarin hydroxylase activity in irreversibly inhibited human liver microsomes vs control batch; conditions: probe coumarin
T5 sequence (P11509 1-494): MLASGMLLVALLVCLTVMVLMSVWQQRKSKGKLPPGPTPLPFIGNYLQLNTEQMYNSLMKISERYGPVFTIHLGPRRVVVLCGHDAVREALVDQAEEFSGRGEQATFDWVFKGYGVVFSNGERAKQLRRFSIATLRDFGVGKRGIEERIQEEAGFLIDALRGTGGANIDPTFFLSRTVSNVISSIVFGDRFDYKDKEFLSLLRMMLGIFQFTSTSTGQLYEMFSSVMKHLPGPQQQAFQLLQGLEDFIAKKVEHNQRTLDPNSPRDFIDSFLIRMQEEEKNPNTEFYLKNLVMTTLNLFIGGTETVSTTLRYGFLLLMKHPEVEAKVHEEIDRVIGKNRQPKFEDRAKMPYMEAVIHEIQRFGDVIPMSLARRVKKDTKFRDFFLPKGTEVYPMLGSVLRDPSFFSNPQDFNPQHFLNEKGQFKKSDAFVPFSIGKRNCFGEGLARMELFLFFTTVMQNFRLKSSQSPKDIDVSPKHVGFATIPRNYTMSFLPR

CYP2C19 = CYP2C19 (Homo sapiens, UniProt P33261); conditions: In vitro parameters (literature); cited from earlier work
other major CYP450s = conditions: microsomes irreversibly inhibited by tienilic acid 10 μM, 20 minutes
CYP2C9 [9] = target: T6, CYP2C9 (Homo sapiens, UniProt P11712); assay: in vitro; conditions: pH 7.4, inhibition of diclofenac hydroxylase (CYP2C9-dependant) activity
CYP2E1 = CYP2E1 (Homo sapiens, UniProt P05181); conditions: In vitro parameters (literature); cited from earlier work
CYP2C9 [10] = target: T6, CYP2C9; conditions: value for tolbutamide, used as comparator in Tables 4 and 5; cited from earlier work
CYP2A6 [11] = target: T5, CYP2A6; conditions: In vitro parameters (literature); cited from earlier work
CYP2C9 [12] = target: T6, CYP2C9
Method: as §1, §2

CYP2D6 [13] = target: T1, CYP2D6
Method: as §1, §2

CYP2B6 [14] = target: T2, CYP2B6
Method: as §1, §2

CYP1A2 [15] = system: CYP1A2
Method: as §1, §2

CYP3A4 = CYP3A4 (Homo sapiens, UniProt P08684)
Method: as §1, §2

CYP2C8 [16] = target: T3, CYP2C8; remark: listed apart in the source
Method: as §1, §2

CYP2C9 [17] = target: T6, CYP2C9; conditions: In vitro parameters (literature); cited from earlier work

Sequence of CYP2E1 (P05181 whole entry): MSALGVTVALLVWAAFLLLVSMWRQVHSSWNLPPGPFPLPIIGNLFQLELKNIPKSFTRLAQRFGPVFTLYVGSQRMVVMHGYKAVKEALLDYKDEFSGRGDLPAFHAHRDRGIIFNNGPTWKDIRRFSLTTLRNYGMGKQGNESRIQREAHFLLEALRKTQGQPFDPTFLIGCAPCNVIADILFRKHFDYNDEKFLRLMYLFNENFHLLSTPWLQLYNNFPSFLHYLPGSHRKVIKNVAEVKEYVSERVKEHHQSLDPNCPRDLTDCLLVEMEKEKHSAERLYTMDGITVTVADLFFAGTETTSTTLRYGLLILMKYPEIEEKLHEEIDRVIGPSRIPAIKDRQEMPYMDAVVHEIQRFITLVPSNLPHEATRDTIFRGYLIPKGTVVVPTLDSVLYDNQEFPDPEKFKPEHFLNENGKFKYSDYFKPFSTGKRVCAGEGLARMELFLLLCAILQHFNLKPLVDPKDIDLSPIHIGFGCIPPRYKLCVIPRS
Sequence of CYP3A4 (P08684 2-503): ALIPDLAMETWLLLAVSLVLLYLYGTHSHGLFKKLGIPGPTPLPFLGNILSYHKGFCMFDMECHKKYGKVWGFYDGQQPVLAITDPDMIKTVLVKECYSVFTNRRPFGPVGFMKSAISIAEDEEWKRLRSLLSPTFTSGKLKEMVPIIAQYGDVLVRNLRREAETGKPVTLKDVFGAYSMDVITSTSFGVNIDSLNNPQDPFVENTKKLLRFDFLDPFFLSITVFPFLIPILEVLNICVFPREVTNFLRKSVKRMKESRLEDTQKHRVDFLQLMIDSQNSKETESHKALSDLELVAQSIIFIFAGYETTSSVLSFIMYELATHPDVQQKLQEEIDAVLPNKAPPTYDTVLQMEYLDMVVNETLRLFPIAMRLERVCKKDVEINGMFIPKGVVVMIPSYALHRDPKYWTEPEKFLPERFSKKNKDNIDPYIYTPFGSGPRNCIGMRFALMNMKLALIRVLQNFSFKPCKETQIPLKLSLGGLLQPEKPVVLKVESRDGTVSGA
T6 sequence (P11712 whole entry): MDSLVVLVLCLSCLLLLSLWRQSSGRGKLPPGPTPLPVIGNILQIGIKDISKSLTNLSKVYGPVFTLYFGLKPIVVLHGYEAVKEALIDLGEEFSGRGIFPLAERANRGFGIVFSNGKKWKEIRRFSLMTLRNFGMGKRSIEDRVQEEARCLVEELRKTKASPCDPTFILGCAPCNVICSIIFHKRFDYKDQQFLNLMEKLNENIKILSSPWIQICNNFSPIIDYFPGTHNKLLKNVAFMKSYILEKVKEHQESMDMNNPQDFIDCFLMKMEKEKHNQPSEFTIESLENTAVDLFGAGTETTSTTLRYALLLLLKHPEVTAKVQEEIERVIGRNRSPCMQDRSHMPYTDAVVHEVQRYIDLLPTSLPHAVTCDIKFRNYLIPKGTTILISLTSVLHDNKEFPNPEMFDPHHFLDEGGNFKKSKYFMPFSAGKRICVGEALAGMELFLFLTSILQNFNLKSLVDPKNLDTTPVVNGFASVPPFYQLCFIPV
T1 sequence (P10635 whole entry): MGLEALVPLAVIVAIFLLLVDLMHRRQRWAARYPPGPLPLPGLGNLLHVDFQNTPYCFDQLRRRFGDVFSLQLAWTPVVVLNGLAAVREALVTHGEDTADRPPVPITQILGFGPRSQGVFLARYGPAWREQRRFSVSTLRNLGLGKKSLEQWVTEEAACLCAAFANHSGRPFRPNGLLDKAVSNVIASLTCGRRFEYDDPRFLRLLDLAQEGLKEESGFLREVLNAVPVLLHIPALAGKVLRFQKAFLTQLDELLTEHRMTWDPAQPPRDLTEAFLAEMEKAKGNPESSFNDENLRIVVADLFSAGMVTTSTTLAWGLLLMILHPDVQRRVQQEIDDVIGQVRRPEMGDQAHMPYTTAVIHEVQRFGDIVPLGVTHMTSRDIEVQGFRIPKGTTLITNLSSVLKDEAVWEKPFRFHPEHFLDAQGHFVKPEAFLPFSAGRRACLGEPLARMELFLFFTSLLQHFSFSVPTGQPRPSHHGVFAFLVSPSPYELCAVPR
Sequence of CYP2C19 (P33261 whole entry): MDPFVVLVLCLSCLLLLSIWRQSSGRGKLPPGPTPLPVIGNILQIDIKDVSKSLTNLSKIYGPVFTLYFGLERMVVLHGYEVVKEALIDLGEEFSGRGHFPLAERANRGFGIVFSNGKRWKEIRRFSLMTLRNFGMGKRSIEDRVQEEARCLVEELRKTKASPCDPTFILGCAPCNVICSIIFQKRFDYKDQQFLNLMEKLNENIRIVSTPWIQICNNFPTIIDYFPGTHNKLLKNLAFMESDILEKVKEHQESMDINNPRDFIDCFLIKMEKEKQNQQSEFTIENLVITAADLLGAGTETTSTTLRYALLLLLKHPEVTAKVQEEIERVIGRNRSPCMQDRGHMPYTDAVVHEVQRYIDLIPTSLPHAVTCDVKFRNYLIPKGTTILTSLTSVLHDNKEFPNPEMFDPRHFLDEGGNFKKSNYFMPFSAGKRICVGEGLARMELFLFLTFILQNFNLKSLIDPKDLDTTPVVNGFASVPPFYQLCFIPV

CCc1nc(C)c(CN2CCN(c3cc(C(F)(F)F)ccn3)CC2)[nH]1 [EMTPP]
Ki (CYP2D6 [1]): 5.5 µM | kinact (CYP2D6 [1]): 0.09 min⁻¹

Fc1ccc([C@@H]2CCNC[C@H]2COc2ccc3c(c2)OCO3)cc1 [Paroxetine]
inhibition at 30 min, 50 µM (CYP2B6 [2]; pooled human liver microsomes, pH 7.4, probe bupropion): 91% | inhibition at 30 min, 50 µM (CYP2D6 [3]): 96%

CC(NC(C)(C)C)C(=O)c1cccc(Cl)c1 (centres unmarked) [bupropion]
intrinsic clearance in the presence of control microsomes [4]: 6.7-10.6 ml/min/g of proteins

Cc1ccc(C)c(OCCCC(C)(C)C(=O)O[C@@H]2O[C@H](C(=O)O)[C@@H](O)[C@H](O)[C@H]2O)c1 [Gemfibrozil gluc., Gemfibrozil glucuronide]
Ki (CYP2C8 [5]): 20 µM | kinact (CYP2C8 [5]): 0.21 min⁻¹ | percentage inhibition of amodiaquine hydroxylase activity at excess substrate (CYP2C8 [6]): remains unchanged

Cc1nc2c([nH]1)c(=O)n(C)c(=O)n2Cc1ccco1 [Furafylline]
inhibition at 30 min, 10 µM (CYP1A2 [7]; microsomes): 83% | inhibition at 30 min, 10 µM (CYP1A2 [7]): ~80%

S=P(N1CC1)(N1CC1)N1CC1 [Thiotepa]
inhibition at 30 min, 15 µM (CYP2B6 [2]; pH 7.4): 92% | inhibition at 30 min, 15 µM (CYP2A6 [8]): 64%

COC(=O)[C@H](c1ccccc1Cl)N1CCc2sccc2C1 [Clopidogrel]
Ki (CYP2C19): 0.5 to 14.3 µM | kinact (CYP2C19): 0.056 to 0.35 min⁻¹

O=C(O)COc1ccc(C(=O)c2cccs2)c(Cl)c1Cl [Tienilic acid]
activity of the other major CYP450s (other major CYP450s): remains unchanged | inhibition at 20 min, 10 µM (CYP2C9 [9]): 92%

S=C=NCCc1ccccc1 [Phenethyl isothiocyanate]
kinact (CYP2E1): 0.33 min⁻¹

CC(C)Cc1ccc(C(C)C(=O)O)cc1 (centres unmarked) [ibuprofen]
% involvement of CYP2C9 (fm), expected data (Brown et al.) (CYP2C9 [10]): (80) %

Cc1coc2c1CCC(C)C2 (centres unmarked) [Menthofuran]
Ki (CYP2A6 [11]): 0.84 to 2.5 µM | kinact (CYP2A6 [11]): 0.22 to 0.25 min⁻¹

CNC(C)Cc1ccc2c(c1)OCO2 (centres unmarked) [MDMA]
Ki (CYP2D6 [1]): 23 µM | kinact (CYP2D6 [1]): 0.18 min⁻¹

CCOc1cc(CC(=O)N[C@@H](CC(C)C)c2ccccc2N2CCCCC2)ccc1C(=O)O [repaglinide]
inhibition of intrinsic clearance = % involvement of CYP2C9 in the oxidative metabolism (kit of isolated microsomes) (CYP2C9 [12]): No significant inhibition | inhibition of intrinsic clearance = % involvement of CYP2D6 in the oxidative metabolism (kit of isolated microsomes) (CYP2D6 [13]): No significant inhibition | inhibition of intrinsic clearance = % involvement of CYP2B6 in the oxidative metabolism (kit of isolated microsomes) (CYP2B6 [14]): No significant inhibition | inhibition of intrinsic clearance = % involvement of CYP1A2 in the oxidative metabolism (kit of isolated microsomes) (CYP1A2 [15]): No significant inhibition | inhibition of intrinsic clearance = % involvement of CYP3A4 in the oxidative metabolism (kit of isolated microsomes) (CYP3A4): No significant inhibition | intrinsic clearance in the presence of control microsomes [4]: 38.4-48.9 ml/min/g of proteins

Cc1ccc(-c2cc(C(F)(F)F)nn2-c2ccc(S(N)(=O)=O)cc2)cc1 [celocoxib]
inhibition of intrinsic clearance = % involvement of CYP2C8 in the oxidative metabolism (kit of isolated microsomes) (CYP2C8 [16]): No significant inhibition | inhibition of intrinsic clearance = % involvement of CYP2D6 in the oxidative metabolism (kit of isolated microsomes) (CYP2D6 [13]): No significant inhibition | inhibition of intrinsic clearance = % involvement of CYP2B6 in the oxidative metabolism (kit of isolated microsomes) (CYP2B6 [14]): No significant inhibition | inhibition of intrinsic clearance = % involvement of CYP1A2 in the oxidative metabolism (kit of isolated microsomes) (CYP1A2 [15]): No significant inhibition | inhibition of intrinsic clearance = % involvement of CYP3A4 in the oxidative metabolism (kit of isolated microsomes) (CYP3A4): No significant inhibition | intrinsic clearance in the presence of control microsomes [4]: 13.4-18.9 ml/min/g of proteins | % involvement of CYP2C9 (fm), expected data (Brown et al.) (CYP2C9 [10]): (80) %

CC(C(=O)O)c1ccc(C(=O)c2cccs2)cc1 (centres unmarked) [Suprofen]
Ki (CYP2C9 [17]): 3.7 to 26 µM | kinact (CYP2C9 [17]): 0.07 to 0.09 min⁻¹

CCc1ccc(CCOc2ccc(CC3SC(=O)NC3=O)cc2)nc1 (centres unmarked) [pioglitazone]
inhibition of intrinsic clearance = % involvement of CYP2C9 in the oxidative metabolism (kit of isolated microsomes) (CYP2C9 [12]): No significant inhibition | inhibition of intrinsic clearance = % involvement of CYP2D6 in the oxidative metabolism (kit of isolated microsomes) (CYP2D6 [13]): No significant inhibition | inhibition of intrinsic clearance = % involvement of CYP2B6 in the oxidative metabolism (kit of isolated microsomes) (CYP2B6 [14]): No significant inhibition | inhibition of intrinsic clearance = % involvement of CYP1A2 in the oxidative metabolism (kit of isolated microsomes) (CYP1A2 [15]): No significant inhibition | inhibition of intrinsic clearance = % involvement of CYP3A4 in the oxidative metabolism (kit of isolated microsomes) (CYP3A4): No significant inhibition | intrinsic clearance in the presence of control microsomes [4]: 43-70 ml/min/g of proteins

CCN(CC)C(=S)S [DiethylDithioCarbamate]
Ki (CYP2E1): 12.2 µM | kinact (CYP2E1): 0.02 min⁻¹

COc1c2occc2cc2ccc(=O)oc12 [8-MethOxyPsoralen]
Ki (CYP2A6 [11]): 0.3 to 1.9 µM | kinact (CYP2A6 [11]): 0.5 to 2.1 min⁻¹
